Results reported in ChEMBL document CHEMBL1157662, “Antimalarial and antileishmanial activities of histone deacetylase inhibitors with triazole-linked cap group” (Bioorg Med Chem, 2010).
≈ marks a conversion by molar mass, not a printed value. Calls of active or inactive are those of the source. The rule behind the calls is not given here.

Legend:
Plasmodium falciparum [1] = assay: microbe, parasite or virus in culture; format: functional, organism-based, W2, Vero; conditions: Plasmodium falciparum, W2, Vero, 72 h; read-out: IC50
Description: Antimalarial activity against chloroquine-resistant Plasmodium falciparum W2 infected in African green monkey (Cercopithecus aethiops) Vero cells assessed as parasite LDH activity after 72 hrs by Malstat reagent method

Plasmodium falciparum [2] = assay: microbe, parasite or virus in culture; conditions: D6, Vero, 72 h
Description: Antimalarial activity against chloroquine-sensitive Plasmodium falciparum D6 infected in African green monkey (Cercopithecus aethiops) Vero cells assessed as parasite LDH activity after 72 hrs by Malstat reagent method

Leishmania donovani [3] = assay: Antileishmanial activity against Leishmania donovani promastigotes after 72 hrs by alamar blue assay; format: functional, organism-based
Vero = assay: Cytotoxicity against african green monkey Vero cells after 1 to 2 days by neutral red assay; format: ADME, cell-based, Chlorocebus sabaeus
[4] = Selectivity index, ratio of IC50 for african green monkey (Cercopithecus aethiops) Vero cells to IC50 for chloroquine-resistant Plasmodium falciparum W2
[5] = Selectivity index, ratio of IC50 for african green monkey (Cercopithecus aethiops) Vero cells to IC50 for chloroquine-sensitive Plasmodium falciparum D6
Leishmania donovani [6] = assay: Ratio of suberoylanilide hydroxamic acid IC50 to compound IC50 for Leishmania donovani promastigotes
Leishmania donovani [7] = assay: Ratio of suberoylanilide hydroxamic acid IC50 to compound IC50 for Leishmania donovani promastigotes; format: functional
Histone deacetylase = assay: Inhibition of HDAC in human HeLa cell nuclear extracts after 15 mins by fluorescence assay; format: cell-based
Leishmania donovani [8] = system: Leishmania donovani
[9] = Leishmania donovani, 72 h, read-out: IC50
[10] = Chlorocebus sabaeus, Vero, read-out: IC50

Structure (SMILES) | IC50 (Plasmodium falciparum [1]) [µg/mL] | IC50 (Plasmodium falciparum [2]) [µg/mL] | IC90 (Leishmania donovani [3]; Leishmania donovani, 72 h) [µg/mL] | IC50 (Leishmania donovani [3]; [9]) [µg/mL] | IC50 (Vero; [10]) [µg/mL] | selectivity ratio [4] | selectivity ratio [5] | IC50 ratio (Leishmania donovani [6]) | Ratio (Leishmania donovani [7]) | IC50 (Vero; vero) | IC50 (Histone deacetylase) [nM] | IC50 (Leishmania donovani [3]) | IC90 (Leishmania donovani [8])
COc1ccc(-c2cn(CCCCCC(=O)NO)nn2)cc1 | 0.09 (≈ 0.296 µM) | 0.13 (≈ 0.427 µM) | > 40 | 18.5 (≈ 60.8 µM) | 2.35 (≈ 7.72 µM) | 26.1 | 18.1 |  |  |  |  |  | 
Cc1ccccc1-c1cn(CCCCCC(=O)NO)nn1 | 1.95 (≈ 6.76 µM) | 1.25 (≈ 4.33 µM) | > 40 | 23 (≈ 79.8 µM) | 3.3 (≈ 11.4 µM) | 1.7 | 2.6 |  |  |  |  |  | 
O=C(CCCCCn1cc(-c2cccs2)nn1)NO | 0.0365 (≈ 0.13 µM) | 0.046 (≈ 0.164 µM) | > 40 | 11.5 (≈ 41 µM) |  | > 130 | > 103 | 2 | 2 | Non-toxic |  |  | 
O=C(CCCCCCn1cc(-c2cccnc2)nn1)NO | 0.081 (≈ 0.28 µM) | 0.0755 (≈ 0.261 µM) | 40 (≈ 138 µM) | 15.5 (≈ 53.6 µM) | 3.78 (≈ 13.1 µM) | 46.7 | 50.1 |  |  |  | 365.8 |  | 
O=C(CCCCCn1cc(-c2ccccc2-c2ccccc2)nn1)NO | 2.6 (≈ 7.42 µM) | 2.1 (≈ 5.99 µM) | 38 (≈ 108 µM) | 13 (≈ 37.1 µM) | 2.7 (≈ 7.7 µM) | 1 | 1.3 |  |  |  |  |  | 
CC(/C=C/C(=O)NO)=C\[C@@H](C)C(=O)c1ccc(N(C)C)cc1 [TRICHOSTATIN] | 0.0495 (≈ 0.164 µM) | 0.0412 (≈ 0.136 µM) | 20.5 (≈ 67.8 µM) | 1.37 (≈ 4.53 µM) | 0.095 (≈ 0.314 µM) |  |  |  |  |  |  |  | 
CN(C)c1ccc(-c2cn(CCCCCC(=O)NO)nn2)cc1 | 0.0385 (≈ 0.121 µM) | 0.068 (≈ 0.214 µM) | > 40 | 15.5 (≈ 48.8 µM) | 3.4 (≈ 10.7 µM) | 88.3 | 50 |  |  |  |  |  | 
O=C(CCCCCCCCn1cc(-c2cccc(-c3ccccc3)c2)nn1)NO | 3.2 (≈ 8.15 µM) | 3.35 (≈ 8.53 µM) | 40 (≈ 102 µM) | 20 (≈ 51 µM) |  | > 1.5 | > 1.4 |  |  | Non-toxic | 147.7 |  | 
Cc1cccc(-c2cn(CCCCCC(=O)NO)nn2)c1 | 0.068 (≈ 0.236 µM) | 0.0795 (≈ 0.276 µM) | > 40 | 17 (≈ 59 µM) | 2.7 (≈ 9.36 µM) | 39.7 | 34 |  |  |  |  |  | 
COc1cccc(OC)c1-c1cn(CCCCCC(=O)NO)nn1 | 2.6 (≈ 7.78 µM) | 2 (≈ 5.98 µM) | > 40 | 40 (≈ 120 µM) |  | > 1.8 | > 2.4 |  |  | Non-toxic |  |  | 
CN(C)c1ccc(-c2cn(CCCCCCCCC(=O)NO)nn2)cc1 | 1.65 (≈ 4.59 µM) | 1.8 (≈ 5.01 µM) | > 40 | 20.8 (≈ 57.7 µM) |  | > 2.9 | > 2.6 |  |  | Non-toxic | 596.6 |  | 
CN(C)c1ccc(-c2cn(CCCCCCC(=O)NO)nn2)cc1 | 0.032 (≈ 0.0966 µM) | 0.0245 (≈ 0.0739 µM) | 36 (≈ 109 µM) | 5.35 (≈ 16.1 µM) | 0.765 (≈ 2.31 µM) | 23.9 | 31.2 | 2 | 2 |  |  |  | 
O=C(CCCCCn1cc(-c2cccnc2)nn1)NO | 0.205 (≈ 0.745 µM) | 0.175 (≈ 0.636 µM) | > 40 | 11.4 (≈ 41.6 µM) |  | > 23.2 | > 27.2 |  |  | Non-toxic |  |  | 
O=C(CCCCCCCn1cc(-c2ccc(-c3ccncc3)cc2)nn1)NO | 0.128 (≈ 0.336 µM) | 0.0885 (≈ 0.233 µM) |  |  | 3.85 (≈ 10.1 µM) | 30.2 | 43.5 |  |  |  | 212.9 | Not Active | inactive
O=C(CCCCn1cc(-c2ccccc2)nn1)NO | 0.12 (≈ 0.461 µM) | 0.125 (≈ 0.48 µM) |  |  |  | > 39.6 | > 38.1 |  |  | Non-toxic |  | Not Active | inactive
COc1ccc2cc(-c3cn(CCCCCCCC(=O)NO)nn3)ccc2c1 | 0.165 (≈ 0.431 µM) | 0.112 (≈ 0.293 µM) |  |  | 0.65 (≈ 1.7 µM) | 3.9 | 5.8 |  |  |  | 226.1 | Not Active | inactive
O=C(CCCCCCn1cc(-c2ccc(-c3ccncc3)cc2)nn1)NO | 1.25 (≈ 3.42 µM) | 1.15 (≈ 3.15 µM) |  |  |  | > 3.8 | > 4.1 |  |  | Non-toxic |  | Not Active | inactive
CN(C)c1ccc(-c2cn(CCCCCCCC(=O)NO)nn2)cc1 | 0.185 (≈ 0.536 µM) | 0.175 (≈ 0.507 µM) | > 40 | 24 (≈ 69.5 µM) | 0.97 (≈ 2.81 µM) | 3.6 | 3.8 |  |  |  | 15.9 |  | 
Cc1ccccc1-c1cn(CCCCCCC(=O)NO)nn1 | 0.14 (≈ 0.463 µM) | 0.12 (≈ 0.397 µM) | 40 (≈ 132 µM) | 26 (≈ 86 µM) | 0.71 (≈ 2.35 µM) | 5.1 | 5.9 |  |  |  | 2.8 |  | 
